Data taken from patent US11780893B2, “Kv1.3 blockers” (Zealand Pharma A/S, priority 2019, dated 2023).
Read-outs that look alike come from different tables or passages of the source. Bridge positions count the residues as written; N and C are the ends. Square brackets hold non-standard residues; d marks the D form. Peptide text beside a SMILES is read from it. Nle = CCCC[C@H](N)C(=O)O

What was measured:
[1] = biological target: T1, human Kv1.3 voltage-gated K+ channel (Homo sapiens, UniProt P22001); assay: cell-based; details: inhibition of thallium flux, CHO-DUKX cells with human Kv1.3; read-out: IC50
T1 construct: host or cells: CHO-DUKX

[2] = biological target: T2, Kv1.1 (Homo sapiens, UniProt Q09470); assay: cell-based; details: for IC50: CHO cells, whole-cell patch clamp, read-out: Potency IC50 (nM) Kv1.1; for Selectivity Kv1.1/Kv1.3: ratio IC50[Kv1.1]/IC50[Kv1.3]
T2 construct: expressed in transfected cells; host or cells: Chinese Hamster Ovary (CHO)

[3] = biological target: T3, Kv1.2 (Homo sapiens, UniProt P16389); assay: cell-based; details: CHO cells, whole-cell patch clamp; read-out: Potency IC50 (nM) Kv1.2
T3 construct: expressed in transfected cells; host or cells: Chinese Hamster Ovary (CHO)

[4] = biological target: T4, Kv1.3 (Homo sapiens, UniProt P22001); assay: cell-based; details: CHO cells, whole-cell patch clamp; read-out: Potency IC50 (nM) Kv1.3
T4 construct: expressed in transfected cells; host or cells: Chinese Hamster Ovary (CHO)

[5] = biological target: T5, Kv1.6 (Homo sapiens, UniProt P17658); assay: cell-based; details: for IC50: CHO cells, whole-cell patch clamp, read-out: Potency IC50 (nM) Kv1.6; for Selectivity Kv1.6/Kv1.3: ratio IC50[Kv1.6]/IC50[Kv1.3]
T5 construct: expressed in transfected cells; host or cells: Chinese Hamster Ovary (CHO)

[6] = tested on: Human peripheral blood mononuclear cells (PBMCs); assay: IL-2 release from anti-CD3 stimulated human PBMCs (Example 4b); type: cell-based; details: geometric mean, at least 6 replicates, read-out: anti-CD3 PBMC/IL-2 IC50
Experimental: Human peripheral blood mononuclear cells (PBMCs) were used to assess the effects of Kv1.3 blockers on T-cell activation as determined by IL-2 release after stimulation with anti-CD3.
Human PBMCs were obtained from Precision for Medicine (Frederick, Md.). Cells from 5 donors were used. Plate-bound anti-CD3 was used to stimulate bulk T cells in the PBMC preparations. Briefly, 96-well plates were coated with anti-CD3 antibody for app. 16 hours at 5° C., using 50 μl of a 1 μg/ml anti-CD3 solution diluted in PBS. Thereafter the plates were washed twice.
Kv1.3 blockers were subsequently diluted in medium (RPMI 1640 with Glutamax-I containing, 10% v/v Fetal Bovine Serum, 1% v/v penicillin-streptomycin Solution) and added in a volume of 50 μl. The compounds indicated in Table 4b were used at concentrations ranging from […] to 1000 nM (half log dilutions, starting concentrations varying).
Finally, 50.000 PBMCs in the same medium were added to each well in a volume of 50 μl, giving a final volume of 100 μl per well. The plates were incubated for 20-24 hours in a 37° C./5% CO2 incubator. After centrifugation of the plates, 25 μl supernatant was transferred to IL-2 detection plates (MSD Human IL-2 Tissue Culture Kit, cat #K151AHB-2) and IL-2 was measures as described by the manufacturer (Meso Scale Discovery, Rockville, Md., USA).
Results are shown in Table 4b as geometric mean of IC50 values obtained from anti-CD3 stimulated human PBMC assays. All values derive from at least 6 replicates.

[7] = tested on: delayed-type hypersensitivity (DTH) ear swelling response; type: in vivo, rat; details: CsA 10 mg/kg per os, +/- SD
[8] = biological target: Rat whole blood (Rattus norvegicus, UniProt P15384)
[9] = in vivo; details: male, rat, sc, 70 nmol/kg
[10] = Exp #1, Kv1.3 blocker 70 nmol/kg SC 24 hrs prior to KLH challenge
[11] = Exp #2, Kv1.3 blocker 70 nmol/kg SC 24 hrs prior to KLH challenge
[12] = Exp #3, Kv1.3 blocker 50 nmol/kg SC 24 hrs prior to KLH challenge

T2 sequence (Q09470 whole entry): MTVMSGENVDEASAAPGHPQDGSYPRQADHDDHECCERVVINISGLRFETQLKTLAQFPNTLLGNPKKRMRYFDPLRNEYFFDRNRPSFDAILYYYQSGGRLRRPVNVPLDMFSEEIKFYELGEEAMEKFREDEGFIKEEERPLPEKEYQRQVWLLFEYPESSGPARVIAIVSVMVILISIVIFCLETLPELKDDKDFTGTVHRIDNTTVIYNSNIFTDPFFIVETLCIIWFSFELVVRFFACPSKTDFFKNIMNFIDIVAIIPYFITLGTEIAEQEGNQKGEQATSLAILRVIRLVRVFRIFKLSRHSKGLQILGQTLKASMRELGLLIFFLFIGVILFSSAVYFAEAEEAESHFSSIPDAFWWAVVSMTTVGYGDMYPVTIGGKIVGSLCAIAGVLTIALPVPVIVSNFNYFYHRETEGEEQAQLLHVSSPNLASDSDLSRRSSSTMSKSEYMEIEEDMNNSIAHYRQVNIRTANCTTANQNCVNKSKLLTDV
T5 sequence (P17658 whole entry): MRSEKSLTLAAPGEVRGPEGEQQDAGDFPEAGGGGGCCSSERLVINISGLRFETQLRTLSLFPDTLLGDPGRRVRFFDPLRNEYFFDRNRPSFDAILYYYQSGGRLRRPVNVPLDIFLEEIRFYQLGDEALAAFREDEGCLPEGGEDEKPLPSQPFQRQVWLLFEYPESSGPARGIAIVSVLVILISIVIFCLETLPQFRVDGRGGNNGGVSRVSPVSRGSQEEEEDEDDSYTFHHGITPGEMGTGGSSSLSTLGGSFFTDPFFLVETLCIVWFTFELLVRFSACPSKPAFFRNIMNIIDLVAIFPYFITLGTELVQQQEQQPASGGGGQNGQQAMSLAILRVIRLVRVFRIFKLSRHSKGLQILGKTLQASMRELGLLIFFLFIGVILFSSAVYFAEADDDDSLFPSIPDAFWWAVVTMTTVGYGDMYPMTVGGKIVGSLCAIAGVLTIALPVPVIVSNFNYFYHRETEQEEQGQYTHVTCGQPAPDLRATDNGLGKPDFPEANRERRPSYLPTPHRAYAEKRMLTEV
T4 sequence (P22001 whole entry): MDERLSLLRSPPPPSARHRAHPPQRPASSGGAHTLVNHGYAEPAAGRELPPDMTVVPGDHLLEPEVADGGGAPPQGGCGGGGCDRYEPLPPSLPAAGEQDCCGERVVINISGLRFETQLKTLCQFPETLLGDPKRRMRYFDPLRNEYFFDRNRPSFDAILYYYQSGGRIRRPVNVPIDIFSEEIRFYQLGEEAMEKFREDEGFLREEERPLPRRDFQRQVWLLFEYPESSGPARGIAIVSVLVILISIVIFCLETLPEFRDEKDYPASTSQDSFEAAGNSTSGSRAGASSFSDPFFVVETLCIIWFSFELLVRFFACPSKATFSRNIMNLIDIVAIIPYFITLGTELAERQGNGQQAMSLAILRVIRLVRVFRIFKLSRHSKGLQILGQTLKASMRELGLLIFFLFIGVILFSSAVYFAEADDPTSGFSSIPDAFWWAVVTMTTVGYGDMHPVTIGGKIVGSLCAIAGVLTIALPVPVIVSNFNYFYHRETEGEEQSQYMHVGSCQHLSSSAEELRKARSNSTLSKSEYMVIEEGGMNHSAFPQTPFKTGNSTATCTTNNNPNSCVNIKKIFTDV
T1 sequence (P22001 whole entry): as above
T3 sequence (P16389 whole entry): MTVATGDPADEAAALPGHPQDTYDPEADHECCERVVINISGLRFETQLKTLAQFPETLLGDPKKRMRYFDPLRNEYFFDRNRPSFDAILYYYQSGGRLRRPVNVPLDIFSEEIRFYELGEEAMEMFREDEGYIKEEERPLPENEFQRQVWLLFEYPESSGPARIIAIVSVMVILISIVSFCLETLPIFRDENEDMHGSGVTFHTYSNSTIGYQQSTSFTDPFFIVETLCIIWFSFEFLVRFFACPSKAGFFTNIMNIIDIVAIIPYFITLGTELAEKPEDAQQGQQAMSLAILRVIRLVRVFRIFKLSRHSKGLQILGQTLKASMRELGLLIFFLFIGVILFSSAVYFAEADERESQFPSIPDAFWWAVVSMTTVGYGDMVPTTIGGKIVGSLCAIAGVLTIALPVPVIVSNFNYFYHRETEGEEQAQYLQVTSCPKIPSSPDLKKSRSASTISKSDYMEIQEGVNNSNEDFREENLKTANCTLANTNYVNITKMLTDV
Sequence of Rat whole blood (P15384 whole entry): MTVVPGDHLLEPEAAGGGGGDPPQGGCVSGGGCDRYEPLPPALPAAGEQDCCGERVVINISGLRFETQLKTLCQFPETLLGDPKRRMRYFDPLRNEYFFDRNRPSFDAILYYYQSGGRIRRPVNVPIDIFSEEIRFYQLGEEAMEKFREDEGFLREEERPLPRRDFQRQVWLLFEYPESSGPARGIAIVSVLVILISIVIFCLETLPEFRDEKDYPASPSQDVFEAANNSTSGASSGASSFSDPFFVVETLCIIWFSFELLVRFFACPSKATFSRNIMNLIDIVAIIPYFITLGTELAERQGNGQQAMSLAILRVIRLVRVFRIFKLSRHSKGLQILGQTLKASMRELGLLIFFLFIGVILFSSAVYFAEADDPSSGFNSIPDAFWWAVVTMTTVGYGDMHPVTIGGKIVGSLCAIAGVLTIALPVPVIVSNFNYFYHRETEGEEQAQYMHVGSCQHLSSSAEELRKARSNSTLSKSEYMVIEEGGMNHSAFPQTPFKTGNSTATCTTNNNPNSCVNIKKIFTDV

Row | Structure (SMILES) | IC50 [1] [nM] | IC50 [2] [nM] | Selectivity Kv1.1/Kv1.3 [2] | IC50 [3] [nM] | IC50 [4] [nM] | IC50 [5] [nM] | Selectivity Kv1.6/Kv1.3 [5] | IC50 [6] [nM] | % inhibition of ear thickness (AUC of Δ ear thickness 0-48 hours) [7, 10] | % inhibition of ear thickness (AUC of Δ ear thickness 0-48 hours) [7, 11] | % inhibition of ear thickness (AUC of Δ ear thickness 0-48 hours) [7, 12] | % inhibition of ear thickness (AUC of Δ ear thickness 0-48 hours) ([7]; Exp #4, Kv1.3 blocker 100 nmol/kg SC 24 hrs prior to KLH challenge) | IC50 [8] [nM] | AUC(0-inf) [9] [µM·h] | Cmax [9] [nM] | half-life [9] [min]
1 | CCCC[C@H](NC(=O)[C@@H]1CCCN1)C(=O)N[C@@H](CC(=O)O)C(=O)N[C@@H](CCCC)C(=O)N[C@@H](CCCNC(=N)N)C(=O)N[C@H]1CSSC[C@@H]2NC(=O)[C@H](CCCCN)NC(=O)CNC(=O)[C@H](Cc3ccccc3)NC(=O)[C@H]([C@@H](C)CC)NC(=O)[C@H](CO)NC(=O)CNC(=O)[C@H]([C@@H](C)CC)NC(=O)[C@H](C)NC(=O)[C@H](CCCCN)NC(=O)[C@H](CC(C)C)NC(=O)[C@@H]3CSSC[C@@H](C(=O)N[C@@H](Cc4ccc(O)cc4)C(=O)N4CCC[C@H]4C(=O)N[C@@H](CCCNC(=N)N)C(N)=O)NC(=O)[C@H](CCCCN)NC(=O)[C@H](CSSC[C@H](NC(=O)[C@H](CCC(=O)O)NC(=O)[C@H](C(C)C)NC(=O)[C@H](CO)NC(=O)[C@H](C)NC(=O)[C@H](CO)NC1=O)C(=O)N[C@@H](CCCCN)C(=O)N[C@@H](CCC(N)=O)C(=O)N[C@@H](CCCCN)C(=O)N3)NC(=O)[C@H](CCCCN)NC(=O)[C@H](CCCCN)NC(=O)[C@H](CC(N)=O)NC(=O)[C@H](CCCC)NC2=O [Compound 41] (H-P[Nle]D[Nle]RCSASVECKQKCLKAIGSIFGKC[Nle]NKKCKCYPR-NH2; disulfide 6-27, 12-32, 16-34) | 0.15 | > 3000 | >17100 | 939 | 0.18 | > 3000 | >17100 | 0.03 | 46.9 (+/−10.9) % | 27.7 (+/−11.5) % | 22.2 (+/−11.1) % | 41.9 (+/−12.5) % | ≤ 1 |  |  | 
2 | CC[C@H](C)[C@@H]1NC(=O)[C@H](C)NC(=O)[C@H](CCCCN)NC(=O)[C@H](CC(C)C)NC(=O)[C@@H]2CSSC[C@@H](C(=O)N[C@@H](Cc3ccc(O)cc3)C(=O)N3CCC[C@H]3C(=O)N[C@@H](CCCNC(=N)N)C(=O)O)NC(=O)[C@H](CCCCN)NC(=O)[C@@H]3CSSC[C@H](NC(=O)[C@H](CCC(=O)O)NC(=O)[C@H](C(C)C)NC(=O)[C@H](CO)NC(=O)[C@H](C)NC(=O)[C@H](CO)NC(=O)[C@@H](NC(=O)[C@H](CCCNC(=N)N)NC(=O)[C@H](CCSC)NC(=O)[C@H](CC(=O)O)NC(=O)[C@H](CCSC)NC(=O)[C@@H](N)CC(N)=O)CSSC[C@H](NC(=O)[C@H](CCCCN)NC(=O)CNC(=O)[C@H](Cc4ccccc4)NC(=O)[C@H]([C@@H](C)CC)NC(=O)[C@H](CO)NC(=O)CNC1=O)C(=O)N[C@@H](CCSC)C(=O)N[C@@H](CC(N)=O)C(=O)N[C@@H](CCCCN)C(=O)N[C@@H](CCCCN)C(=O)N3)C(=O)N[C@@H](CCCCN)C(=O)N[C@@H](CCC(N)=O)C(=O)N[C@@H](CCCCN)C(=O)N2 [Compound 3] (H-NMDMRCSASVECKQKCLKAIGSIFGKCMNKKCKCYPR-OH; disulfide 6-27, 12-32, 16-34) | 0.3 | > 3000 | >11300 | 409 | 0.27 | > 3000 | >11300 | 0.06 | 38.8 (+/−9.7) % | 25.0 (+/−12.5) % | 37.3 (+/−13.8) % |  | ≤ 1 | 0.0839 | 36.9 | 59.4
